{"source": "paper PMC7915588", "about": "“Polyphyllin D Shows Anticancer Effect through a Selective Inhibition of Src Homology Region 2-Containing Protein Tyrosine Phosphatase-2 (SHP2)” (Molecules, 2021)", "assay_in_all_cases": "biochemical", "parameters_in_all_cases": "Fluorogenic phosphatase assay, DiFMUP hydrolysis by recombinant PTPs, initial velocity, Ex/Em 355/460 nm", "settings_in_all_cases": "read-out: Inhibition by 20 µM polyphyllin D (%)", "key": {"PTPN1 (PTP1B)": {"biological_target": "T1, PTPN1 (PTP1B) (Homo sapiens, UniProt P18031)", "T1 construct": "1-299", "T1 sequence (P18031 1-435)": "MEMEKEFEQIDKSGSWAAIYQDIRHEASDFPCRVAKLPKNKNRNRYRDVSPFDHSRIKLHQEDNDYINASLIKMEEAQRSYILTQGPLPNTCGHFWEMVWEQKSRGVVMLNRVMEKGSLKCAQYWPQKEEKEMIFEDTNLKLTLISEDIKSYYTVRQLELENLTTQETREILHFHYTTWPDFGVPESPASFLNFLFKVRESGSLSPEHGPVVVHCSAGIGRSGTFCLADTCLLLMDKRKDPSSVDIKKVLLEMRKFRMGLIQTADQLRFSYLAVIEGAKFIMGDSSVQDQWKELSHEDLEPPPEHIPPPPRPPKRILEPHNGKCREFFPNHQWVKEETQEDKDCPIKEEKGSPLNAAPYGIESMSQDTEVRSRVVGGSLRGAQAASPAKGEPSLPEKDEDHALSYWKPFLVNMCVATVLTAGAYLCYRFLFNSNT", "protocol": "(§1) Enzymatic reactions were initiated by the addition of SHP2 (final concentration of 10 nM) to a solution of each of the 658 phytochemical compounds (final concentration of 20 µM) in reaction buffer (20 mM bis-tris pH 6.0, 150 mM NaCl, 2.5 mM dithiothreitol, and 0.01% Triton X-100) containing DiFMUP (final concentration of 140 µM). Changes in the fluorescence intensities were measured continuously for 10 min at Ex/Em = 355/460 nm on a VictorTM X4 multilabel plate reader. Enzyme inhibition was estimated by comparing the reaction velocity in the presence of each compound with that in the absence of any compound. Inhibition of the other PTPs was measured in the same way. Next, we established a screening strategy using a DiFMUP substrate to identify a natural product that inhibits SHP2 activity. Initially, we screened 658 compounds at 20 µM using a 96-well plate system (Figure 2A). […] The selected compounds were tested at 20 µM for SHP2 inhibition, and 14 additional non-receptor-type PTPs (PTP1B, TCPTP, PTPH1, STEP, SHP1, HePTP, PTP-MEG2, PTP-PEST, PTP-BAS, PTP36, PTP-HSCF, PTPD1, LYP, and HD-PTP) were used to investigate the inhibition selectivity. The results were visualized using a heat map analysis by GraphPad Prism (Figure 2B and Table S2 in Supplementary Materials). To identify new SHP2 anticancer natural products, we first performed cloning to express SHP2 protein and then purified it. PTPN11 (Gene ID: 5781) encoding human SHP2 (amino acids sequences 1 to 526) with several extra amino acids were cloned into the MBP-pET 28a (+) vector, which was successfully used to overexpress PTPs with enhanced solubility in an Escherichia coli expression system. Information on amino acids for 15 non-receptor-type PTPs including SHP2 is summarized in Table S3 in the Supplementary Materials. SHP2 was overexpressed in RosettaTM (DE3) and purified using a metal affinity resin (Figure S1 in Supplementary Materials). […] The kcat, KM, and kcat/KM values were determined to be 270 min^−1, 70 μM, and 3.9 μM^−1min^−1, respectively, using the Lineweaver–Burk plot analysis (Table S1 in Supplementary Materials)."}, "SHP2": {"biological_target": "T2, SHP2 (Homo sapiens, UniProt Q06124)", "T2 construct": "gene PTPN11", "T2 sequence (Q06124 1-526)": "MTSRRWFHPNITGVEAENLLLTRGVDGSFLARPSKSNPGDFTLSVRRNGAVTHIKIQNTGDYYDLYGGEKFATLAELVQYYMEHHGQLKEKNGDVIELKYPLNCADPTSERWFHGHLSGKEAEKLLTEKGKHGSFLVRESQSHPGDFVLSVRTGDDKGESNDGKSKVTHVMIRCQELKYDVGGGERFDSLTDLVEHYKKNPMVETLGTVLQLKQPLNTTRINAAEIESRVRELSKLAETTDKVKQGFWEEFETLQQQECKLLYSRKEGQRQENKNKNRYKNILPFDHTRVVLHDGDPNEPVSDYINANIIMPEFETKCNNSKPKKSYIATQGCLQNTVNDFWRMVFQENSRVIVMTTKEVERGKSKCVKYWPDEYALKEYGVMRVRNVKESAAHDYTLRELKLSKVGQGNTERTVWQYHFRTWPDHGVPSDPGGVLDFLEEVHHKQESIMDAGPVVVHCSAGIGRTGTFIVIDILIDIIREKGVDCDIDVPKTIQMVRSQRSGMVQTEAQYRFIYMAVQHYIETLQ", "protocol": "as §1"}, "PTPN12 (PTP-PEST)": {"biological_target": "T3, PTPN12 (PTP-PEST) (Homo sapiens, UniProt Q05209)", "T3 construct": "1-334", "T3 sequence (Q05209 1-780)": "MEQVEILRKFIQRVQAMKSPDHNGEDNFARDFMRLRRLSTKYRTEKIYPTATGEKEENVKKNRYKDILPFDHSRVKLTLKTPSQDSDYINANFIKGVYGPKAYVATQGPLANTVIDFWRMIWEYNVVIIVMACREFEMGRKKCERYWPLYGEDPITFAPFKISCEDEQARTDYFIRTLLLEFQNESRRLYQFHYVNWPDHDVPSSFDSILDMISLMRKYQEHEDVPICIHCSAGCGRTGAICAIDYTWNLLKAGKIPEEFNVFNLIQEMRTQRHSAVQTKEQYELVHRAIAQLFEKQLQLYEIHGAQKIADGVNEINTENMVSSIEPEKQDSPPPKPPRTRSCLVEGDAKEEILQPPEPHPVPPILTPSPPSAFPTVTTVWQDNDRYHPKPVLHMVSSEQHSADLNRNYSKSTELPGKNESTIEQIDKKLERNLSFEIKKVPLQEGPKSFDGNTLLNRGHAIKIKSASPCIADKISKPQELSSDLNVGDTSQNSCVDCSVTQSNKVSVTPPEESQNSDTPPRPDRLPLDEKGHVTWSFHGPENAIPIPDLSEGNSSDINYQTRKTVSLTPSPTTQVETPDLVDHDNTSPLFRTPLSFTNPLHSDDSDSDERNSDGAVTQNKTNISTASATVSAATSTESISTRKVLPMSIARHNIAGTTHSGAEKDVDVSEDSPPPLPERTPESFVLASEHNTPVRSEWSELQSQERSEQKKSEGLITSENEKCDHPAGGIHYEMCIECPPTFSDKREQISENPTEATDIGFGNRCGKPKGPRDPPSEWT", "protocol": "as §1"}}}
{"smiles": "C[C@@H]1CC[C@@]2(OC1)O[C@H]1C[C@H]3[C@@H]4CC=C5C[C@@H](O[C@@H]6O[C@H](CO)[C@@H](O[C@@H]7O[C@@H](CO)[C@H](O)[C@H]7O)[C@H](O)[C@H]6O[C@@H]6O[C@@H](C)[C@H](O)[C@@H](O)[C@H]6O)CC[C@]5(C)[C@H]4CC[C@]3(C)[C@H]1[C@@H]2C", "note": "[polyphyllin D]", "values": [{"measurement": "inhibition at 20 µM", "setting": "PTPN1 (PTP1B)", "value": 0, "unit": "%"}, {"measurement": "inhibition at 20 µM", "setting": "SHP2", "value": 85.6, "unit": "%"}, {"measurement": "inhibition at 20 µM", "setting": "PTPN12 (PTP-PEST)", "value": 29.9, "unit": "%"}]}
